Test results published in patent publication US20220370464A1, “COMPOSITIONS AND METHODS OF TREATING OR PREVENTING OCULAR INFECTIONS WITH FILOCICLOVIR” (Microbiotix, Inc., priority 2019, published 2022).
Where two headings read alike, the source gives them in different places.

Tests used:
[1] = test system: AdV 4; test: Antiviral EC50 against AdV 4 (method not given); assay type: cell-based, adenovirus 4; settings: Human mastadenovirus E; AdV 4, summary table
[2] = test system: AdV 6; test: Antiviral EC50 against AdV 6 (method not given); assay type: cell-based, adenovirus 6; settings: Human mastadenovirus C; AdV 6, summary table
[3] = test system: AdV 7; test: Antiviral EC50 against AdV 7 (method not given); assay type: cell-based, adenovirus 7; settings: Human mastadenovirus B; AdV 7, summary table
[4] = test system: Adenovirus 6 (AdV6); test: Neutral red survival assay, AdV6 in A549 cells; assay type: cell-based
Description: (§1) Similar experiments were carried out with filociclovir against adenovirus 6, adenovirus 7, and adenovirus 8.
(§2) The neutral red cell cytotoxicity assay is used to detect cell viability or drug cytotoxicity. The principle of this assay is based on the detection of viable cells via the uptake of the dye neutral red. Neutral red is a eurhodin dye that stains lysosomes in viable cells. Viable cells can take up neutral red via active transport and incorporate the dye into their lysosomes, but non-viable cells cannot not take up this chromophore. Consequently, after washing, viable cells can release the incorporated dye under acidified-extracted conditions. The amount of released dye can be used to determine the total number of viable cells or drug cytotoxicity. As such, cytotoxicity is expressed as a concentration-dependent reduction of the uptake of neutral red after exposure to the compound under investigation.
(§3) Neutral red survival assays were carried out in a 96-well format. Briefly, A549 adenocarcinomic human alveolar basal epithelial cells were plated at a concentration of 6×10^3 cells per well one day prior to infection. AdV6 infections were carried out at 5×10^3 PFU per well (an estimated 0.5 PFU/cell at the time of infection). […] Filociclovir plates were read and the results were graphed using GraphPad Prism graphing and statistical software (GraphPad Software, San Diego, Calif.).

[5] = Cytotoxicity, neutral red, uninfected drug control wells of A549 cells; assay type: cell-based; settings: human, AdV6 row of Table 2
Description: as §2
as §3, with “infection). Filociclovir was serially diluted 1:3 on separate 96-well plates with a no drug final row as control.” for “infection).”

[6] = test system: AdV7; test: CPE reduction assay, adenovirus 7; assay type: cell-based
Description: as §1

[7] = test system: AdV5; test: Immunofluorescence assay of AdV5-infected A549 cells (DBP and hexon staining); assay type: cell-based, adenovirus 5; settings: 27 hours post-infection
Description: (§4) Human A549 cells on glass coverslips in 6-well plates were infected at an MOI of 5 PFU/cell with either AdV5 or AdV6 or were mock-infected. After 1 hour, filociclovir was added to a final concentration of 40, 10, 4, or 0 μM. At 27 hours post-infection, the A549 cells were fixed in paraformaldehyde (3.7% in PBS) and permeabilized with methanol. Cells were stained for the Adenovirus DNA-binding protein (DBP; green staining in images) and adenovirus hexon (red staining in images). DBP staining will be […] and uniform during early AdV infection (prior to AdV DNA replication). DBP associates with replication centers as the infection progresses. The replication centers are initially small “dots” (each dot results from one incoming AdV genome). The replication centers will expand and “multiply” as DNA replication takes place. The nuclei become enlarged and misshapen as infection progresses. AdV hexon, the most abundant component of the AdV viral capsid, is not expressed until after DNA replication is taking place and is therefore considered to be a “late” AdV protein.

[8] = test system: AdV6; test: Immunofluorescence assay of AdV6-infected A549 cells (DBP and hexon staining); assay type: cell-based, adenovirus 6; settings: 27 hours post-infection
Description: as §4

[9] = test system: CMV; settings: β Herpesvirus, cited from earlier work
[10] = test system: HHV-6A; settings: β Herpesvirus, cited from earlier work
[11] = test system: EBV; settings: γ Herpesvirus, cited from earlier work
[12] = test system: VZV; settings: α Herpesvirus, cited from earlier work
[13] = test system: BK Virus; settings: Polyomavirus, cited from earlier work
[14] = test system: JC Virus; settings: Polyomavirus, cited from earlier work
[15] = test system: Adenovirus 5 (AdV5); settings: AdV 5‡, summary table; cited from earlier work

Nc1nc2c(ncn2/C=C2/CC2(CO)CO)c(=O)[nH]1 [Filociclovir, 2-amino-9-{(Z)-[2,2-bis(hydroxymethyl)cyclopropylidene]methyl}-3,9-dihydro-6H-purin-6-one] gave an EC50 [1] of 2.4 µM, an EC50 [2] of 2 µM and an EC50 [3] of 1 µM. For the same molecule, the “concentration effective to improve viability of AdV6 infected cells (FIG. 2)” value ([4]; A549 cells, 6 days post-infection, 'as low as') was ≥ 10^−1 μM, the CC50/EC50 ([4]; AdV6) was 27 and the CC50 at 6 days [5] was greater than 100 µM. The CC50/EC50 [6] was greater than 144, the hexon-positive cells ([7]; AdV5, A549, 4 μM) was “Some hexon-positive cells” and the hexon-positive cells ([7]; AdV5, A549, 10 μM) was “extremely few hexon-positive cells”. For the same molecule, the hexon-positive cells ([7]; AdV5, A549, 40 μM) was “No hexon-positive cells”, the hexon-positive cells ([8]; AdV6, A549, 4 μM) was “Some hexon-positive cells” and the hexon-positive cells ([8]; AdV6, A549, 10 μM) was “extremely few hexon-positive cells”. For the same molecule, the hexon-positive cells ([8]; AdV6, A549, 40 μM) was “No hexon-positive cells”, the EC50 ([9]; listed as filociclovir) was no more than 10 µM and the EC50 [9] was 1 ± 0.6 µM. For the same molecule, the EC50 ([10]; listed as filociclovir) was no more than 10 µM, the EC50 [10] was 1.3 µM and the EC50 ([11]; listed as filociclovir) was no more than 10 µM. The EC50 [11] was 1 ± 0.94 µM, the EC50 ([12]; listed as filociclovir) was no more than 10 µM and the EC50 [12] was 1.5 ± 1.6 µM. The EC50 ([13]; listed as filociclovir) was no more than 50 µM, the EC50 [13] was 34 ± 17 µM and the EC50 ([14]; listed as filociclovir) was no more than 50 µM. The EC50 [14] was 46 ± 44 µM and the EC50 [15] was 2.2 ± 0.4 µM.
